Data as given in US20230140522A1, “COMPOSITION FOR AMELIORATING OR PREVENTING DECREASES IN BONE STRENGTH” (priority 2020, published 2023).

Legend:
[1] = test system: osteoprogenitor cell MC3T3-E1; assay: Osteocalcin (osteoblast differentiation marker) production amount after ornithine addition, MC3T3-E1; assay type: cell-based; settings: ornithine 5.0 mg/mL, 14 days culture, culture supernatant, vs no addition of ornithine
Protocol: (§1) The cells were adjusted with medium to 1.2x10^5 cells/0.2 mL/well and seeded in a 48-well plate. […] After culturing for 7 days, the cells were washed once with PBS for ALP activity measurement and then cryopreserved together with the plate. In addition, after culturing for 14 days, the culture supernatant was sampled for measurement of the amount of osteocalcin used in the below-mentioned Experimental Example 2, and cryopreserved. The test was performed with n=5 and the medium was changed every 3-4 days.
For the measurement of the amount of osteocalcin in the culture supernatant, the supernatant was diluted 10-fold and the measurement was performed using Mouse Osteocalcin EIA kit.
(§2) The test was a two-sided test with Student’s t-test, and P<0.05 (less than 5% of null hypothesis) or more was judged as significant difference. The data in the graph is shown in mean±standard error.

[2] = test system: osteoprogenitor cell MC3T3-E1; assay: Alkaline phosphatase activity after ornithine addition, MC3T3-E1, influence of BMP-2 concentration; assay type: cell-based; settings: ornithine 5 mg/mL, 7 days, vs ornithine no addition
Protocol: The cells were placed in a 10 cm petri dish using a medium and cultured in a CO2 incubator (5% CO2, 37° C.). The medium was changed every other day, and the cells were collected when they reached 80% confluence and used for the test.
The cells were adjusted with medium to 1.2x10^5 cells/0.2 mL/well and seeded in a 48-well plate. […] After 7 days, the cells were washed once with PBS, 50 µL of 0.1% Triton-X was added, and the mixture was further sonicated for 1 min to prepare a cell lysate. The test was performed with n=4 and the medium was changed every 3-4 days.
ALP activity of the above-mentioned cell lysate was measured by LabAssay ALP. With this kit, ALP activity was measured from the amount of p-nitrophenol per unit amount of protein produced within a given period of time. The amount of protein in the solution was measured using Micro BCA Protein Assay Reagent Kit.
as §2

[3] = test system: osteoclast progenitor cell RAW264; assay: Osteoclast number measurement (TRAP staining) after ornithine addition, RAW264; assay type: cell-based; settings: 50 ng/mL RANKL, 7 days, vs ornithine non-addition
Protocol: The cells were placed in a T-75 flask using a medium and cultured in a CO2 incubator (5% CO2, 37° C.). The medium was changed every other day, and the cells were collected when they reached 80% confluence and used for the test. Cells were prepared in a test medium at 3x10^3 cells/0.1 mL/well and seeded in a 96 well plate. […] After culturing for 7 days, TRAP staining was performed, and TRAP staining-positive and multinucleated cells were counted, based on which the ability to suppress differentiation into osteoclasts was examined by comparison. The medium was changed every 3-4 days. The test was performed with n=5. The test was a two-sided test with Student’s t-test, and P<0.05 (less than 5% of null hypothesis) or more was judged as significant difference. The data in the graph is shown in mean±standard error.

[4] = test system: osteoprogenitor cell MC3T3-E1; assay: Alkaline phosphatase (osteoblast differentiation marker) activity after ornithine addition, MC3T3-E1; assay type: cell-based; settings: 7 days culture, vs no addition of ornithine
Protocol: The cells were placed in a T-75 flask using a medium and cultured in a CO2 incubator (5% CO2, 37° C.). The medium was changed every other day, and the cells were collected when they reached 80% confluence and used for the test.
as §1
The cells were washed with PBS and lysed with 60 µL/well of cell lysing agent (Cell-LyEX1 containing 2 mM PMSF). After stirring the plate at room temperature for 30 min, the supernatant was diluted 5-fold and the obtained solution was used as a sample for measurement. ALP activity in the cells was measured by LabAssay ALP. With this kit, ALP activity was measured from the amount of p-nitrophenol per unit amount of protein produced within a given period of time. The amount of protein in the solution was measured using Micro BCA Protein Assay Reagent Kit.
as §2

[5] = test system: osteoporosis-disuse muscle atrophy simultaneous onset mouse model; assay: Gastrocnemius muscle weight, osteoporosis-disuse muscle atrophy simultaneous onset mouse model; assay type: in vivo; settings: OVX mice with cast fixation, ornithine 1% blended feed, vs OVX (ornithine non-administration with cast fixation) group

In the case of `Cl.NCCC[C@H](N)C(=O)O` [ornithine, L-Ornithine Monohydrochloride], the osteocalcin production amount [1] is reported as “significantly increased”, the alkaline phosphatase activity ([2]; BMP-2 50 ng/mL) is reported as “significantly increased” and the alkaline phosphatase activity ([2]; BMP-2 100 ng/mL) is reported as “significantly increased”. For the same compound, the alkaline phosphatase activity ([2]; BMP-2 200 ng/mL) was “significantly increased”, the number of osteoclasts ([3]; ornithine 0.02 mg/mL) was “decreased” and the number of osteoclasts ([3]; ornithine 0.1 mg/mL) was “significantly decreased”. For the same compound, the number of osteoclasts ([3]; ornithine 0.5 mg/mL) was “significantly decreased”, the alkaline phosphatase activity ([4]; ornithine 0.2 mg/mL) was “significantly increased” and the alkaline phosphatase activity ([4]; ornithine 1.0 mg/mL) was “significantly increased”. The alkaline phosphatase activity ([4]; ornithine 5.0 mg/mL) was “significantly increased” and the “gastrocnemius muscle weight (per body weight)” value [5] was “increased”.
